Literature values, collected in patent US20230372264A1 (priority 2020, published 2023).

Assays:
[1] = system: SARS-CoV; conditions: reference [9]
[2] = system: ACE2 receptor bonds with viral S-glycoproteins; conditions: in vitro cellular models, cholesterol depletion, reference [5]
[3] = system: Candida sp.; conditions: reference [27]
[4] = system: Staphylococcus aureus; conditions: reference [27]
[5] = system: Streptococcus spp.; conditions: reference [27]
[6] = system: human breast cancer cells; conditions: reference [16]

For methyl-β-cyclodextrin [MβCD], the “inhibition of SARS-CoV infectivity” value [1] is given as 90% and the “number of ACE2 receptor bonds with viral S-glycoproteins” value [2] is given as “halves”.
For `OCCc1ccc(O)c(O)c1` [hydroxytyrosol, 4-(2-hydroxyethyl)-1,2-dihydroxybenzene], the growth reduction [3] is given as 40%, the growth reduction [4] is given as 40% and the growth reduction [5] is given as 40%.
For hydroxypropyl-α-cyclodextrin, the “effectiveness against migration vs hydroxypropyl-β-cyclodextrin” value [6] is listed as “twice as effective”.
